The record followed here is patent US20240402182A1, “PEPTIDE TARGETING FUSOBACTERIA, COMPOSITION FOR DIAGNOSING CANCER COMPRISING SAME, AND DRUG DELIVERY COMPOSITION” (INDUSTRY-ACADEMIC COOPERATION FOUNDATION, YONSEI UNIVERSITY, priority 2021, published 2024).

This assay concerns mixture of 9 types of Fusobacteria. The assay can be described thus: ELISA binding affinity of selected M13 bacteriophage clones to Fusobacteria (FIG. 4D). Further details: species or system Fusobacterium nucleatum. The following applies: M13 bacteriophage displaying the peptide, plate coated with Fusobacteria, M13-HRP antibody, TMB, absorbance at OD450. Here is the method:
A mixture of 9 types of Fusobacteria or each of the 9 types of Fusobacteria was coated on a plate, and a blocking reaction was performed using a 5% BSA solution to prevent non-specific binding. Each selected M13 bacteriophage was reacted on the plate coated with Fusobacteria. The plate was washed three times with phosphate buffer solution containing 0.1% Tween 20, and then reacted with an M13-HRP antibody. The reaction plate was washed three times with phosphate buffer solution containing 0.1% Tween 20 and reacted using a TMB color solution. The reaction was stopped with 1 M sulfuric acid (H2SO4), and the absorbance was measured at OD450 to compare the binding affinity.

On to PPWLADI [SEQ ID NO: 81], for which the “binding affinity to Fusobacteria (ELISA)” value is recorded as “highest binding affinity”.
